Data taken from publication PMC3975032, “ATPase Activity and ATP-dependent Conformational Change in the Co-chaperone HSP70/HSP90-organizing Protein (HOP)” (The Journal of Biological Chemistry, 2014).

Experiments:
[1] = molecular target: T1, HOP-(1-543), full-length human HSP70/HSP90-organizing protein (Homo sapiens, UniProt P31948); assay: protection from TPCK-trypsin digestion, SDS-PAGE; format: binding; conditions: 25 mM HEPES-KOH pH 7.4, 5 mM MgCl2, 100 mM KCl, 37 °C, 30 min
T1 construct: gene STIP1; full-length 1-543, His6-tagged (pCold I), E. coli BL21, Ni-NTA and Superdex 200; monomer

[2] = molecular target: T2, HOP-(1-543), full-length human HSP70/HSP90-organizing protein (Homo sapiens, UniProt P31948, D186A); assay: ATP hydrolysis rate versus ATP concentration; format: biochemical; conditions: 25 mM HEPES-KOH pH 7.4, 5 mM MgCl2, 50 mM KCl, 37 °C
T2 construct: gene STIP1; full-length 1-543, His6-tagged (pCold I), E. coli BL21, Ni-NTA and Superdex 200; monomer

[3] = molecular target: T1, HOP-(1-543), full-length human HSP70/HSP90-organizing protein; assay: 1H NMR titration (ATP H2/H8 shifts), non-linear fit; format: binding
[4] = molecular target: T3, HOP-(1-359), TPR1-TPR2A (ATPase domain) (Homo sapiens, UniProt P31948); assay: 1H NMR chemical shift change (protein amide region); format: binding; conditions: 20 mM potassium phosphate pH 6.5, 50 mM KCl, 5 mM MgCl2, 25 °C, 10-fold molar excess ATP
T3 construct: gene STIP1; TPR1-DP1-TPR2A segment, residues 1-359, His6-tagged (pCold I), E. coli BL21
T3 sequence (P31948 1-359): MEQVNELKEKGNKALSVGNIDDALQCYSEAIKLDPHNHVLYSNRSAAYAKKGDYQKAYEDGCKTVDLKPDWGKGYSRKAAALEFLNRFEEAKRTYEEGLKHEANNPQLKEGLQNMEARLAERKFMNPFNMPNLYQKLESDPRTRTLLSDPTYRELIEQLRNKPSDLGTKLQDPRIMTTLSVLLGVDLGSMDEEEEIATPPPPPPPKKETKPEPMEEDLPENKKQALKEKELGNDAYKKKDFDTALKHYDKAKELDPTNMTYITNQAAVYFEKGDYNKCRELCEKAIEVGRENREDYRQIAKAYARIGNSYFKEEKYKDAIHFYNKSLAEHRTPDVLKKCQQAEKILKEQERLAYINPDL

T1 sequence (P31948 whole entry): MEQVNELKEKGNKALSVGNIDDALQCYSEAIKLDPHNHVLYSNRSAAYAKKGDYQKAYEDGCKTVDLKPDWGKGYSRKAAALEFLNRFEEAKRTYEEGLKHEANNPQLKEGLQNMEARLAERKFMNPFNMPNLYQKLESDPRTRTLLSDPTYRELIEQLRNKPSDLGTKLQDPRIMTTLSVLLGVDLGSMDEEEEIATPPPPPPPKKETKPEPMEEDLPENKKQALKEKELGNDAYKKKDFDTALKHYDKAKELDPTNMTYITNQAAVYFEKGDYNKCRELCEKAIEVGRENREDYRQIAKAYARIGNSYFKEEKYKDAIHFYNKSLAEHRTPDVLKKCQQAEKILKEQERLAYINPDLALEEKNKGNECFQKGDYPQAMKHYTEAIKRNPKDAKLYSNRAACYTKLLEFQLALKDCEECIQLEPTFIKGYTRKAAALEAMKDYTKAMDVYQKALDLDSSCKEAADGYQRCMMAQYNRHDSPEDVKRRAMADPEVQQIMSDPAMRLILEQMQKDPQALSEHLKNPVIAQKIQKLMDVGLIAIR
T2 sequence (P31948 whole entry D186A): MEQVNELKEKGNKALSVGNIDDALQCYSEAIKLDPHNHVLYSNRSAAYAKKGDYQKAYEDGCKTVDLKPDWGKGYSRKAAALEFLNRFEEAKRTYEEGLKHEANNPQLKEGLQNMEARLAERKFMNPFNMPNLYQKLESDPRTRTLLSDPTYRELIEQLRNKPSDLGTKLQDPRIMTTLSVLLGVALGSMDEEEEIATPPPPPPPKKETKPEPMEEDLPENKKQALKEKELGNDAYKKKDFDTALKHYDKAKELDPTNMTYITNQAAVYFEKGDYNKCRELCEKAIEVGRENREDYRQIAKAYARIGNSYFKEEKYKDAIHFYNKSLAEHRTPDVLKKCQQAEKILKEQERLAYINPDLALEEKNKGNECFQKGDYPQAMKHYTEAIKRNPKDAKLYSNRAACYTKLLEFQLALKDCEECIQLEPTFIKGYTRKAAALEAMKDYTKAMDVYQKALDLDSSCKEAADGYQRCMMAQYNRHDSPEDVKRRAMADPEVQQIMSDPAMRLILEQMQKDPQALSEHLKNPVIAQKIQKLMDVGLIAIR

Row | SMILES | protection efficiency at 5 mM [1] | ATP hydrolysis rate versus ATP concentration [2] | Kd [3] | 1H NMR chemical shift change (protein amide region) [4]
1 | Nc1ncnc2c1ncn2[C@@H]1O[C@H](COP(=O)(O)OP(=O)(O)O)[C@@H](O)[C@H]1O [ADP] | 31.0 ± 8.9% |  |  | 
2 | Nc1ncnc2c1ncn2[C@@H]1O[C@H](COP(=O)(O)OP(=O)(O)NP(=O)(O)O)[C@@H](O)[C@H]1O [AMP-PNP, adenosine 5′-(β,γ-imino)triphosphate] | 28.6 ± 10.1% |  |  | 
3 | Nc1ncnc2c1ncn2[C@@H]1O[C@H](COP(=O)(O)OP(=O)(O)OP(=O)(O)O)[C@@H](O)[C@H]1O [ATP] |  | this mutation caused no significant change in ATPase activity | 350 µM | These data indicated that ATP directly binds the ATPase domain of HOP
